A word on the IC50: it is the concentration at which inhibition is half-maximal. A low value points to inhibition by little substance. The inhibition is the drop in the measured response relative to a control, in per cent.

Where “and” joins values, the source holds several entries; their conditions need not be identical. Equal entries are not always repeated.

The values below come from US8143259B2, “Cold menthol receptor antagonists” (Janssen Pharmaceutica, NV, priority 2008, dated 2012).

This assay addresses T1, canine TRPM8 (Canis lupus familiaris, UniProt Q1A7N1).
T1 construct: expressed in transfected cells
Nature of the assay: In Vitro Canine TRPM8 Functional Assay (Ca2+ fluorescence, icilin activation). Format: cell-based. The note with it: for % Inh @ 0.2 μM: 0.2 μM compound; for IC50: HEK293 cells stably expressing canine TRPM8, icilin activation, Ca2+ fluorescence; for inhibition at 0.2 µM: HEK293, 0.2 μM compound; for % Inh @ 1 μM: 1 μM compound; for % Inh @ 0.5 μM: 0.5 μM compound; for inhibition at 1 µM: HEK293, 1 μM compound; for inhibition at 0.5 µM: HEK293, 0.5 μM compound. The method in brief: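 HEK293 cells stably expressing canine TRPM8, loaded with Calcium 3 dye; compounds added 5 min before icilin at a concentration giving ~80% maximal response. Peak icilin-evoked Ca2+ fluorescence, basal-subtracted and normalised to maximal response, fitted by sigmoidal nonlinear regression; quadruplicate wells.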

Setting [1] is: canine TRPM8 HEK293, icilin, 0.2 µM.
[2] abbreviates: canine TRPM8 HEK293, icilin, 0.5 µM.

T1 sequence (Q1A7N1 1-1104): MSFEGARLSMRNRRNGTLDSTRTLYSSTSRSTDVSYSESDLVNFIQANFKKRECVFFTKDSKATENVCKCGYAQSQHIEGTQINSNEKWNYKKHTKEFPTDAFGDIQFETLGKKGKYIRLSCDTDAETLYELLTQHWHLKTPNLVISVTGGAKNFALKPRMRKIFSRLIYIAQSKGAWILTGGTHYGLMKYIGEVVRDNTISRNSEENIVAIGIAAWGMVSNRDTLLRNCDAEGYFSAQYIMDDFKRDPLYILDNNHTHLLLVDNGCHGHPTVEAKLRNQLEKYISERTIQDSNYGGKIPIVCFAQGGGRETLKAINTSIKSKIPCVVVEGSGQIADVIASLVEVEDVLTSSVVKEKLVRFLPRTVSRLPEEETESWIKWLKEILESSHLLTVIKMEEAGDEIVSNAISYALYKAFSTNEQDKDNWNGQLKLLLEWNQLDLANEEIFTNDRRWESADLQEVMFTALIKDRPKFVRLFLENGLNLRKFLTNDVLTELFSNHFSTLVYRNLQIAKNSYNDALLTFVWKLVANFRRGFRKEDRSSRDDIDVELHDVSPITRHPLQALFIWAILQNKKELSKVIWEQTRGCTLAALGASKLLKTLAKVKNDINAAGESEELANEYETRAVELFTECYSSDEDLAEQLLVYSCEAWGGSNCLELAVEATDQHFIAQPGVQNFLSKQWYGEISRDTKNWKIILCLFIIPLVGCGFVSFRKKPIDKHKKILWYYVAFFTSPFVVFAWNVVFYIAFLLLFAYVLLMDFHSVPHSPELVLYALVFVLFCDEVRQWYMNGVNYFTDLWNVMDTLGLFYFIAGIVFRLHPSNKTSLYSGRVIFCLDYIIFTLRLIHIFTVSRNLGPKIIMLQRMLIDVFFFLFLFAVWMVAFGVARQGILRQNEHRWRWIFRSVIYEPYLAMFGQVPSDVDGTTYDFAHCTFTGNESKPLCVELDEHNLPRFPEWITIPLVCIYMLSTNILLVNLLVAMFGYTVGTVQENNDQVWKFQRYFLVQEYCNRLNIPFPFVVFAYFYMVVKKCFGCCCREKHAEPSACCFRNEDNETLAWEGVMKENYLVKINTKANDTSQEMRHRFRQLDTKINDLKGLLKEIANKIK

Regarding `O=C(C(Nc1ccccc1F)c1ccc(-c2ccccn2)cc1)N1CCCC1c1ccccc1Cl` (single isomer, unassigned) [Cpd 339], 27 nM corresponded to half-maximal inhibition (IC50). The “% Inh @ 0.2 μM” value under setting [1] is on record as 97%.
Take `Cc1nc2ccc(C(Nc3ccccc3F)C(=O)N3CCCC3c3ccccc3F)cc2s1` (single isomer, unassigned) [Cpd 340]: inhibition was half-maximal at 5 nM (IC50). Also, under “canine TRPM8 HEK293, icilin”, the inhibition at 0.2 µM was found to be 101%.
`Cc1nc2ccc(C(Nc3ccccc3F)C(=O)N3CCCC3c3ccccc3F)cc2s1` (single isomer, unassigned) [Cpd 341] showed an IC50 of 24 nM. Under setting [1], the “% Inh @ 0.2 μM” value worked out at 100%.
`O=C(C(Nc1ccccc1F)c1ccc(C(F)(F)F)cc1)N1CCCC1c1cncc(Br)c1` (single isomer, unassigned) [Cpd 345] had an IC50 of 44 nM. Under “canine TRPM8 HEK293, icilin”, the inhibition at 0.2 µM is 92%.
`O=C(C(Nc1ccccc1F)c1ccc(C(F)(F)F)cc1)N1CCCC1c1cncc(Br)c1` (single isomer, unassigned) [Cpd 346]: the IC50 was 38 nM. Further, the “% Inh @ 0.2 μM” value under setting [1] is listed as 97%.
In the case of `CC(C)(C)c1ccc(C(Nc2ccccc2F)C(=O)N2CCCC2c2ccccc2F)cn1` (single isomer, unassigned) [Cpd 356], the “% Inh @ 0.2 μM” value (canine TRPM8 HEK293, icilin) is given as 57%.
As for `CC(C)(C)c1ccc(C(Nc2ccccc2F)C(=O)N2CCC[C@H]2c2ccccc2F)cn1` (single isomer, unassigned) [Cpd 357], the IC50 came out at 3 nM. Under “canine TRPM8 HEK293, icilin”, the inhibition at 0.2 µM turned out to be 100%.
With `O=C(C(Nc1ccccc1F)c1ccc(N2CCOCC2)nc1)N1CCCC1c1ccccc1F` (single isomer, unassigned) [Cpd 360], the “% Inh @ 0.2 μM” value under setting [1] is on record as 43%.
`CC(C)(C)c1ccc(C(Nc2ccccc2)C(=O)N2CCCC2c2ccc(Cl)cc2)cc1` (single isomer, unassigned) [Cpd 367]: the IC50 came out at 149 ± 51 nM. Besides, the “% Inh @ 1 μM” value (canine TRPM8 HEK293, icilin, 1 µM) was 5.8157%.
Take `CC(C)(C)c1ccc(C(Nc2ccccc2)C(=O)N2CCCC2CNc2ccccc2)cc1` (single isomer, unassigned) [Cpd 368]: for the setting “canine TRPM8 HEK293, icilin”, the “% Inh @ 1 μM” value worked out at 15.864%.
For `O=C(C(Nc1ccccc1)c1ccc(C(F)(F)F)cc1)N1CCCC1c1ccccc1Cl` (single isomer, unassigned) [Cpd 369], under “canine TRPM8 HEK293, icilin”, the “% Inh @ 0.5 μM” value was determined as 7.773%. For the same compound, under “3 μM compound, canine TRPM8 HEK293, icilin”, the “% Inh @ 3 μM” value stood at 48%.
The compound `CC(C)(C)c1ccc(C(Nc2ccccc2)C(=O)N2CCC(O)(c3ccccc3)CC2)cc1` (stereo not shown) [Cpd 3] registered an IC50 of 351 nM. For the same compound, the inhibition at 1 µM (canine TRPM8 HEK293, icilin) was determined as 101%.
Take `CC(C)(C)c1ccc(C(Nc2ccccc2)C(=O)N2CCC(O)(c3ccccn3)CC2)cc1` (stereo not shown) [Cpd 4]: the IC50 is 291 nM. Also, the inhibition at 1 µM (canine TRPM8 HEK293, icilin) came out at 102%.
The compound `CC(C)(C)c1ccc(C(Nc2ccccc2)C(=O)N2CCCC2c2cccnc2)cc1` (stereo not shown) [Cpd 5] showed an IC50 of 99.5 nM. Moreover, for the setting “canine TRPM8 HEK293, icilin”, the inhibition at 1 µM is 102%.
The compound `CC(C)(C)c1ccc(C(Nc2ccccc2)C(=O)N2CCCCC2c2ccccc2)cc1` (stereo not shown) [Cpd 11] displayed an IC50 of 172 nM. In addition, the inhibition at 1 µM (canine TRPM8 HEK293, icilin) was 103%.
In the same order, the values of `CC(C)(C)c1ccc(C(Nc2ccccc2)C(=O)N2CCCC2c2ccccc2)cc1` (stereo not shown) [Cpd 12] are 60.6 nM and 103%.
`CC(C)(C)c1ccc(C(Nc2ccccc2)C(=O)N2CCC(c3ccccc3)C2)cc1` (stereo not shown) [Cpd 13] returned an IC50 of 323 nM. The inhibition at 1 µM (canine TRPM8 HEK293, icilin) was 103%.
In turn, `CC(C)(C)c1ccc(C(Nc2ccccc2)C(=O)N2CCCCC2Cc2ccccc2)cc1` (stereo not shown) [Cpd 14] registered an IC50 of 416 nM. The inhibition at 1 µM (canine TRPM8 HEK293, icilin) is 102%.
The matching figures for `CC(C)(C)c1ccc(C(Nc2ccccc2)C(=O)N2CCc3ccccc32)cc1` (stereo not shown) [Cpd 15]: 257 nM and 94.8%.
`O=C(C(Nc1ccccc1)c1ccc(C(F)(F)F)cc1)N1CCCC1c1ccccc1` (stereo not shown) [Cpd 17] displayed an IC50 of 60.3 nM. In addition, where the note is “canine TRPM8 HEK293, icilin”, the inhibition at 1 µM was 98.2%.
In the same order, the values of `CC(C)(C)c1ccc(C(Nc2ccccc2)C(=O)N2CCCCCC2c2ccccc2)cc1` (stereo not shown) [Cpd 18] are 349 nM and 95.4%.
Regarding `O=C(C(Nc1ccccc1)c1ccc(C(F)(F)F)cc1)N1CCCC1c1cccnc1` (stereo not shown) [Cpd 19], the IC50 turned out to be 282 nM. The inhibition at 1 µM (canine TRPM8 HEK293, icilin) is 100%.
In the same order, the values of `O=C(C(Nc1ccccc1)c1ccc(C(F)(F)F)cc1)N1CCCC1c1ccccc1F` (stereo not shown) [Cpd 20] are 29.9 nM and 101%.
As to `O=C(C(Nc1ccccc1)c1ccc(C(F)(F)F)cc1)N1CCCC1c1cccs1` (stereo not shown) [Cpd 24], the IC50 came out at 14.9 nM. Besides, the inhibition at 0.5 µM (canine TRPM8 HEK293, icilin) came to 102%.
The matching figures for `O=C(C(Nc1ccccc1)c1ccc(C(F)(F)F)cc1)N1CCCC1c1cc2ccccc2[nH]1` (stereo not shown) [Cpd 25]: 141 nM and 102%.
Consider `O=C(C(Nc1ccccc1)c1ccc(C(F)(F)F)cc1)N1CCCC1c1cc2ccccc2[nH]1` (stereo not shown) [Cpd 26], for which the “% Inh @ 0.5 μM” value under setting [2] is reported as 56.872%.
`Cc1cccc2c1N(C(=O)C(Nc1ccccc1)c1ccc(C(F)(F)F)cc1)CC2` (stereo not shown) [Cpd 27] gave an IC50 of 316 nM. Also, where the note is “canine TRPM8 HEK293, icilin”, the inhibition at 0.5 µM was found to be 93.2%.
Regarding `O=C(C(Nc1ccccc1)c1ccc(C(F)(F)F)cc1)N1CCCC1c1ccncc1` (stereo not shown) [Cpd 28], inhibition was half-maximal at 91.7 nM (IC50). Moreover, the inhibition at 0.5 µM (canine TRPM8 HEK293, icilin) amounted to 103%.
`O=C(C(Nc1ccccc1)c1ccc(C(F)(F)F)cc1)N1CCCC1c1ccccc1Br` (stereo not shown) [Cpd 29] yielded an IC50 of 40.9 nM. Also, for the setting “canine TRPM8 HEK293, icilin”, the inhibition at 0.5 µM worked out at 104%.
`Cc1ccccc1C1CCCN1C(=O)C(Nc1ccccc1)c1ccc(C(F)(F)F)cc1` (stereo not shown) [Cpd 32] yielded an IC50 of 31.2 nM. Also, where the note is “canine TRPM8 HEK293, icilin”, the inhibition at 0.5 µM was found to be 104%.
Take `O=C(C(Nc1ccccc1)c1ccc(C(F)(F)F)cc1)N1CCc2ccccc21` (stereo not shown) [Cpd 33]: the IC50 amounted to 202 nM. The inhibition at 0.5 µM (canine TRPM8 HEK293, icilin) is 96.5%.
The matching figures for `Cc1ccccc1NC(C(=O)N1CCc2ccccc21)c1ccc(C(F)(F)F)cc1` (stereo not shown) [Cpd 34, 1-(Indolin-1-yl)-2-(o-tolylamino)-2-(4-(trifluoromethyl)phenyl)-ethanone]: 161 nM and 102%.
In the same order, the values of `O=C(C(Nc1ccccc1F)c1ccc(C(F)(F)F)cc1)N1CCc2ccccc21` (stereo not shown) [Cpd 36] are 459 nM and 90.7%.
`O=C(C(c1ccc(C(F)(F)F)cc1)N1CCc2ccccc21)N1CCc2ccccc21` (stereo not shown) [Cpd 42] returned an IC50 of 231 nM. For the setting “canine TRPM8 HEK293, icilin”, the inhibition at 0.5 µM was determined as 102% and the inhibition at 1 µM is 29%.
Compound `COc1ccccc1C1CCCN1C(=O)C(Nc1ccccc1)c1ccc(C(F)(F)F)cc1` (stereo not shown) [Cpd 43] registered an IC50 of 33.3 nM. Besides, the inhibition at 0.5 µM (canine TRPM8 HEK293, icilin) was found to be 101%.
In the same order, the values of `O=C(C(Nc1ccccc1)c1ccc(C(F)(F)F)cc1)N1CCCCC1c1ccccc1` (stereo not shown) [Cpd 44] are 57.6 nM and 101%.
With `O=C(C(Nc1ccccc1)c1ccc(C(F)(F)F)cc1)N1CCCC1c1nccs1` (stereo not shown) [Cpd 49], the IC50 is 78.3 nM. Besides, under “canine TRPM8 HEK293, icilin”, the inhibition at 0.5 µM was determined as 102%.
In the same order, the values of `O=C(C(Nc1ccccc1)c1ccc(C(F)(F)F)cc1)N1CCCC1c1ccccn1` (stereo not shown) [Cpd 50] are 376 nM and 83.6%.
The matching figures for `O=C(C(Nc1ccccc1)c1ccc(C(F)(F)F)cc1)N1CCCC1c1ccco1` (stereo not shown) [Cpd 52]: 19.8 nM and 97.8%.
In the same order, the values of `CC(C)(C)c1ccc(C(Nc2ccccc2)C(=O)N2CCCC2c2ccncc2)cc1` (stereo not shown) [Cpd 53] are 53.8 nM and 99%.
Regarding `CC(C)(C)c1ccc(C(Nc2ccccc2)C(=O)N2CCCC2c2ccccn2)cc1` (stereo not shown) [Cpd 54], the “% Inh @ 0.5 μM” value under setting [2] was found to be 69.055%.
Compound `CC(C)(C)c1ccc(C(Nc2ccccc2)C(=O)N2CCCC2c2ccccn2)cc1` (stereo not shown) [Cpd 55] yielded an IC50 of 207 nM. For the same compound, the inhibition at 0.5 µM (canine TRPM8 HEK293, icilin) stood at 99.9%.
As for `N#Cc1ccc(C(Nc2ccccc2F)C(=O)N2CCCC2c2ccccc2Cl)cc1` (stereo not shown) [Cpd 62], the midpoint of inhibition, the IC50, lay at 78 nM. Besides, where the note is “canine TRPM8 HEK293, icilin”, the inhibition at 0.5 µM was 103%.
Regarding `O=C(NN1CCCC1c1ccccc1Cl)C(Nc1ccccc1)c1ccc(C(F)(F)F)cc1` (stereo not shown) [Cpd 63, N-[2-(2-Chloro-phenyl)-pyrrolidin-1-yl]-2-phenylamino-2-(4-trifluoromethyl-phenyl)-acetamide], the inhibition at 0.5 µM (canine TRPM8 HEK293, icilin) came out at 36%.
With `O=C(C(Nc1ccccc1F)c1ccc(C(F)(F)F)cc1)N1Cc2ccccc2C1` (stereo not shown) [Cpd 64], the IC50 is 22 nM and 25 nM. Also, where the note is “canine TRPM8 HEK293, icilin”, the inhibition at 0.2 µM is 100% and the inhibition at 0.5 µM stood at 102%.
Regarding `O=C(C(Nc1ccccc1F)c1ccc(C(F)(F)F)cc1)N1CCc2ccccc2C1` (stereo not shown) [Cpd 65], it took 48 nM to reach half-maximal inhibition (IC50). For the same compound, the inhibition at 0.5 µM (canine TRPM8 HEK293, icilin) is 100%.
The compound `COc1ccc(C(Nc2ccccc2)C(=O)N2CCCC2c2ccccc2Cl)cc1` (stereo not shown) [Cpd 66] returned an IC50 of 28 nM. Besides, for the setting “canine TRPM8 HEK293, icilin”, the inhibition at 0.5 µM was found to be 102%.
The matching figures for `O=C(C(Nc1ccccc1)c1ccc(Br)cc1)N1CCCC1c1ccccc1Cl` (stereo not shown) [Cpd 67]: 42 nM and 102%.
The matching figures for `O=C(C(Nc1ccccc1)c1ccc(Br)cc1)N1CCCC1c1ccccc1` (stereo not shown) [Cpd 70]: 23 nM and 103%.
The matching figures for `O=C(C(Nc1ccccc1)c1ccc(Br)cc1)N1Cc2ccccc2C1` (stereo not shown) [Cpd 71]: 74 nM and 91%.
Consider `COc1ccc(C(Nc2ccccc2)C(=O)N2CCCC2c2ccccc2)cc1` (stereo not shown) [Cpd 72], for which the IC50 amounted to 46 nM. The inhibition at 0.5 µM (canine TRPM8 HEK293, icilin) is 102%.
In the same order, the values of `O=C(C(Nc1ccc(F)cc1)c1ccc(C(F)(F)F)cc1)N1CCCC1c1ccccc1Cl` (stereo not shown) [Cpd 74] are 73 nM and 98%.
